Measured values from patent publication US20240053326A1, “TESTING COLON CANCER DRUGS FOR IMMUNOMODULATORY EFFECTS” (BROWN UNIVERSITY, priority 2022, published 2024).

Test system: HCT-116, HT-29, and KM12C colon cancer cell lines
Test: Cytokinome (cytokine, chemokine, growth factor) profiling of cell culture supernatant after small-molecule treatment, Luminex 200
Type: cell-based, human
Conditions: for decreases in VEGF: 48 h treatment at IC-10 to IC-90, slope of linear regression, count of drug/cell line groups (HCT-116, HT-29, KM12C) with analyte among top five most down-regulated
Protocol: We designed a high-throughput custom multiplex cytokine, chemokine, and growth factor profiling panel based on both pro- and anti-inflammatory markers, as well as cytokines and chemokines involved in the recruitment and activation of immune cells such as natural killer (NK) and T cells. Cell lines were treated with the drug panel and cell culture supernatants were analyzed using Luminex 200 technology (FIG. 2). Cell lines were treated at differing concentrations (IC-10, IC-30, IC-50, IC-70, and IC-90) to determine dose-response effects for each small-molecule. It is important to emphasize that the panel was designed to analyze soluble factors that are secreted or shed by tumor cells post-treatment with drug.
Cells were plated at 3.5×10^4 cells in a 48 well plate (Thermo Fisher Scientific, Waltham, MA, USA) in complete medium and incubated at 37° C. with 5% CO2. At 24 hours after plating, almost all the tumor cells were adherent to the bottom of the flask and the complete medium was replaced with drug-containing medium. Subsequently, the culture supernatants were collected after 48 hours of incubation and were frozen at −80° C. until the measurement of cytokines was performed. The day of analysis, samples were thawed and centrifuged to remove cellular debris.
An R&D systems Human Premixed Multi-Analyte Kit (R&D Systems, Inc., Minneapolis, MN) was run on a Luminex 200 Instrument (LX200-XPON-RUO, Luminex Corporation, Austin, TX) according to the manufacturer's instructions. Cell culture supernatant levels of TNF-alpha, IL-6, IL-8/CXCL8, Ferritin, IFN-beta, IL-10, CCL2/JE/MCP-1, VEGF, CXCL13/BLC/BCA-1, IFN-gamma, CCL20/MIP-3 alpha, CCL3/MIP-1 alpha, CCL22/MDC, CCL4/MIP-1 beta, IL-4, IL-17/IL-17a, TRAIL R2/TNFRSF10B, GM-CSF, CXCL5/ENA-78, CXCL9/MIG, G-CSF, CXCL11/I-TAC, Granzyme B, CCL5/RANTES, Prolactin, IFN-alpha, CXCL14/BRAK, IL-12/IL-23 p40, CXCL10/IP-10/CRG2, CCL7/MCP-3/MARC, IL-7, CCL8/MCP-2, TRANCE/TNFSF11/RANK L, IL-15, TRAIL R3/TNFRSF10C, CCL11/Eotaxin, IL-18/IL-1F4, TRAIL/TNFSF10, IL-21, and C-Reactive Protein/CRP were measured.
A quantitative analysis with 6 standards and a minimum of 50 counts per bead region was used with the Luminex to generate analyte values reported as picograms/milliliter (pg/mL). Cytokine concentrations less than the lower limit of detection for each particular cytokine were recoded as zero. Cytokines without detectable expression levels were removed from further analysis of each cell line. Each drug was tested at different inhibitory concentrations (IC-10, IC-30, IC-50, IC-70, and IC-90), and these varying concentrations were used to measure a dose-response effect on cytokine expression. Cytokine dose-response effect was modeled by simple linear regression for each drug. The slopes of the linear regressions were compared. Data analysis and visualization were generated using R (R Development Core Team, 2020).

[1] = 48 h, IC-10 to IC-90, regression slope, count of drug/cell line groups, top five most down-regulated
[2] = 48 h, IC-10 to IC-90, regression slope, count of drug/cell line groups, top five most up-regulated

Structure (SMILES)	decreases in CCL3/MIP-1 alpha [1]	decreases in CXCL9/MIG [1]	decreases in IL-8/CXCL8 [1]	increases in CCL5/RANTES [2]	increases in IL-18/IL-1F4 [2]	increases in Prolactin [2]	decreases in VEGF	increases in CXCL14/BRAK [2]	increases in IL-8/CXCL8 [2]	increases in sTRAIL-R3 [2]	decreases in CXCL5/ENA-78 [1]	decreases in CXCL13/BLC/BCA-1 [1]	decreases in CXCL14/BRAK [1]	increases in CXCL5/ENA-78 [2]
O=C(Nc1cnn2ccc(N3CCC[C@@H]3c3cc(F)ccc3F)nc12)N1CC[C@H](O)C1 [Larotrectinib]	2 out of 3	3 out of 3	2 out of 3	2 out of 3	2 out of 3	2 out of 3	3 out of 3							
Cn1cc(C2=C(c3coc4ccc(F)cc34)C(=O)NC2=O)c2cc3c(cc21)OCO3 [9-ING-41]	2 out of 3	3 out of 3					3 out of 3	3 out of 3	2 out of 3	2 out of 3				
CNC(=O)c1cc(Oc2ccc(NC(=O)Nc3ccc(Cl)c(C(F)(F)F)c3)c(F)c2)ccn1 [Regorafenib]	2 out of 3	3 out of 3	3 out of 3			2 out of 3	3 out of 3	2 out of 3			2 out of 3			
C[C@@H](Oc1cc(-c2cnn(C3CCNCC3)c2)cnc1N)c1c(Cl)ccc(F)c1Cl [Crizotinib]		2 out of 3				2 out of 3	3 out of 3	2 out of 3	2 out of 3			2 out of 3		
COc1ccc(CN2C3CC2CN(c2ccc(-c4cc(OCC(C)(C)O)cn5ncc(C#N)c45)cn2)C3)cn1 [Selpercatinib]	2 out of 3					2 out of 3	3 out of 3		2 out of 3				2 out of 3	3 out of 3
